Laboratory results from patent publication US9439432B2, “Phenylisoxazoline-based compound having herbicidal activity and use thereof” (MOGHU RESEARCH CENTER LTD, priority 2011, dated 2016).

Assays:
Format in all cases: in vivo
Soybean [1] = test: Post-emergence treatment, phytotoxicity to soybean; conditions: post-emergence (about 3 leaf stage), 1,000 g/ha, 4 weeks after spraying, scale 0 to 10 (0: no effects, 10: complete death)
Description: (§1) A rectangular plastic pot having a surface area of 300 cm^2 was filled with sandy loam soil and mixed bed soil which were mixed at a ratio of 1:1, and then, barnyardrass (Echinochloa crusgalli), large crabgrass (Digitaria sanguinalis), blackgrass (Alopecurus myosuroides), and annual bluegrass (Poa annua), which are grass weeds, were seeded thereto. In a pot that was prepared as described above, seeds of corn, soybean, cotton, wheat, and rice were seeded. The pots were irrigated, and one day after, chemicals were sprayed thereto. The spraying was performed by using a track sprayer (R&D Sprayer, USA) equipped with a Teejet 8002 (Spraying Systems Co., USA) nozzle, and a spraying amount was adjusted at 300 L/ha. A spraying solution was prepared by dissolving test materials or references in acetone and adding the same amount of 0.2%(v/v) tween 20 aqueous solution thereto. Application rates were 500, 250, 125, and 62.5 g/ha. The pots were placed in a greenhouse in which during day, the temperature was maintained at a temperature of 25 to 30° C., and during night, the temperature was maintained at a temperature of 15 to 25° C., and the pots were periodically irrigated. Four weeks after the spraying the test materials or References, effects and phytotoxicity of the respective weeds and crops were evaluated in a scale of 0 to 10 (0: no effects, 10: complete death), and results thereof are shown in Table 4 below.
(§2) Pots containing crops and weeds were prepared in the same manner as in Example 7, and then, in the second week in which crops and weeds entered into about 3 leaf stage, the test materials and the references were sprayed thereto in the same manner as described above. The rates were 1,000, 500, 250, and 125 g/ha. Four weeks after the spraying of the test materials or the references, herbicidal efficacy and phytotoxicity to the respective weeds and crops were evaluated in a scale of 0 to 10 (0: no effects, 10: complete death).

Corn [2] = test: Post-emergence treatment, phytotoxicity to corn; conditions: post-emergence (about 3 leaf stage), 1,000 g/ha, 4 weeks after spraying, scale 0 to 10 (0: no effects, 10: complete death)
Description: as §1, §2

Corn [3] = test: Pre-emergence treatment, phytotoxicity to corn; conditions: 500 g/ha, 4 weeks after spraying, scale 0 to 10 (0: no effects, 10: complete death)
Description: as §1

Alopecurus myosuroides [4] = test: Post-emergence treatment, herbicidal efficacy on blackgrass; conditions: 4 weeks after spraying, scale 0 to 10
Description: as §1, §2

Rice [5] = test: Pre-emergence treatment, phytotoxicity to rice; conditions: 500 g/ha, 4 weeks after spraying, scale 0 to 10 (0: no effects, 10: complete death)
Description: as §1

Poa annua [6] = test: Pre-emergence treatment, herbicidal efficacy on annual bluegrass; conditions: 4 weeks after spraying, scale 0 to 10
Description: as §1

Digitaria sanguinalis [7] = test: Pre-emergence treatment, herbicidal efficacy on large crabgrass; conditions: 4 weeks after spraying, scale 0 to 10
Description: as §1

Poa annua [8] = test: Post-emergence treatment, herbicidal efficacy on annual bluegrass; conditions: 4 weeks after spraying, scale 0 to 10
Description: as §1, §2

Wheat [9] = test: Post-emergence treatment, phytotoxicity to wheat; conditions: post-emergence (about 3 leaf stage), 1,000 g/ha, 4 weeks after spraying, scale 0 to 10 (0: no effects, 10: complete death)
Description: as §1, §2

Cotton [10] = test: Pre-emergence treatment, phytotoxicity to cotton; conditions: 500 g/ha, 4 weeks after spraying, scale 0 to 10 (0: no effects, 10: complete death)
Description: as §1

Cotton [11] = test: Post-emergence treatment, phytotoxicity to cotton; conditions: post-emergence (about 3 leaf stage), 1,000 g/ha, 4 weeks after spraying, scale 0 to 10 (0: no effects, 10: complete death)
Description: as §1, §2

Soybean [12] = test: Pre-emergence treatment, phytotoxicity to soybean; conditions: 500 g/ha, 4 weeks after spraying, scale 0 to 10 (0: no effects, 10: complete death)
Description: as §1

Alopecurus myosuroides [13] = test: Pre-emergence treatment, herbicidal efficacy on blackgrass; conditions: 4 weeks after spraying, scale 0 to 10
Description: as §1

Rice [14] = test: Post-emergence treatment, phytotoxicity to rice; conditions: post-emergence (about 3 leaf stage), 1,000 g/ha, 4 weeks after spraying, scale 0 to 10 (0: no effects, 10: complete death)
Description: as §1, §2

Digitaria sanguinalis [15] = test: Post-emergence treatment, herbicidal efficacy on large crabgrass; conditions: 4 weeks after spraying, scale 0 to 10
Description: as §1, §2

Echinochloa crusgalli [16] = test: Post-emergence treatment, herbicidal efficacy on barnyardgrass; conditions: 4 weeks after spraying, scale 0 to 10
Description: as §1, §2

Echinochloa crusgalli [17] = test: Pre-emergence treatment, herbicidal efficacy on barnyardgrass; conditions: 4 weeks after spraying
Description: as §1

Wheat [18] = test: Pre-emergence treatment, phytotoxicity to wheat; conditions: 500 g/ha, 4 weeks after spraying, scale 0 to 10 (0: no effects, 10: complete death)
Description: as §1

[19] = 500 g/ha, scale 0 to 10 (0: no effects, 10: complete death)

Cc1cccc(C2=NOC(C)(COCc3c(F)cccc3F)C2)c1 (stereo not drawn) [Reference F]
1: Phytotoxicity, Corn (Corn [3]) | Herbicidal efficacy, Digitaria sanguinalis (Digitaria sanguinalis [7]; 62.5 g/ha) | Herbicidal efficacy, Echinochloa crusgalli (Echinochloa crusgalli [17]; 125 g/ha, scale 0 to 10)
9: Herbicidal efficacy, Poa annua (Poa annua [6]; 500 g/ha)
5: Herbicidal efficacy, Poa annua (Poa annua [6]; 250 g/ha) | Herbicidal efficacy, Poa annua (Poa annua [8]; post-emergence, 500 g/ha) | Herbicidal efficacy, Echinochloa crusgalli (Echinochloa crusgalli [17]; 250 g/ha, scale 0 to 10)
4: Herbicidal efficacy, Alopecurus myosuroides (Alopecurus myosuroides [4]; post-emergence, 1,000 g/ha) | Herbicidal efficacy, Digitaria sanguinalis (Digitaria sanguinalis [15]; post-emergence, 500 g/ha) | Herbicidal efficacy, Echinochloa crusgalli (Echinochloa crusgalli [16]; post-emergence, 500 g/ha)
2: Phytotoxicity, Corn (Corn [2]) | Herbicidal efficacy, Alopecurus myosuroides (Alopecurus myosuroides [4]; post-emergence, 500 g/ha) | Herbicidal efficacy, Digitaria sanguinalis (Digitaria sanguinalis [7]; 125 g/ha)
0: Phytotoxicity, Soybean (Soybean [1]) | Herbicidal efficacy, Alopecurus myosuroides (Alopecurus myosuroides [4]; post-emergence, 125 g/ha) | Herbicidal efficacy, Alopecurus myosuroides (Alopecurus myosuroides [4]; post-emergence, 250 g/ha) | Phytotoxicity, Rice (Rice [5]) | Herbicidal efficacy, Poa annua (Poa annua [6]; 62.5 g/ha) | Herbicidal efficacy, Poa annua (Poa annua [6]; 125 g/ha) | Herbicidal efficacy, Poa annua (Poa annua [8]; post-emergence, 125 g/ha) | Phytotoxicity, Wheat (Wheat [9]) | Phytotoxicity, Cotton (Cotton [10]) | Phytotoxicity, Cotton (Cotton [11]) | Phytotoxicity, Soybean (Soybean [12]) | Herbicidal efficacy, Alopecurus myosuroides (Alopecurus myosuroides [13]; 62.5 g/ha) | Herbicidal efficacy, Alopecurus myosuroides (Alopecurus myosuroides [13]; 125 g/ha) | Herbicidal efficacy, Alopecurus myosuroides (Alopecurus myosuroides [13]; 250 g/ha) | Phytotoxicity, Rice (Rice [14]) | Herbicidal efficacy, Digitaria sanguinalis (Digitaria sanguinalis [15]; post-emergence, 125 g/ha) | Herbicidal efficacy, Echinochloa crusgalli (Echinochloa crusgalli [16]; post-emergence, 125 g/ha) | Herbicidal efficacy, Echinochloa crusgalli (Echinochloa crusgalli [17]; 62.5 g/ha, scale 0 to 10) | Phytotoxicity, Wheat (Wheat [18])
3: Herbicidal efficacy, Poa annua (Poa annua [8]; post-emergence, 250 g/ha) | Herbicidal efficacy, Alopecurus myosuroides (Alopecurus myosuroides [13]; 500 g/ha) | Herbicidal efficacy, Digitaria sanguinalis (Digitaria sanguinalis [15]; post-emergence, 250 g/ha) | Herbicidal efficacy, Echinochloa crusgalli (Echinochloa crusgalli [16]; post-emergence, 250 g/ha)
10: Herbicidal efficacy, Digitaria sanguinalis (Digitaria sanguinalis [7]; 500 g/ha) | Herbicidal efficacy, Echinochloa crusgalli (Echinochloa crusgalli [17]; [19])
6: Herbicidal efficacy, Digitaria sanguinalis (Digitaria sanguinalis [7]; 250 g/ha) | Herbicidal efficacy, Poa annua (Poa annua [8]; post-emergence, 1,000 g/ha) | Herbicidal efficacy, Digitaria sanguinalis (Digitaria sanguinalis [15]; post-emergence, 1,000 g/ha) | Herbicidal efficacy, Echinochloa crusgalli (Echinochloa crusgalli [16]; post-emergence, 1,000 g/ha)

Cc1ccc(C2=NOC(C)(COCc3c(F)cccc3F)C2)cc1 (stereo not drawn) [Reference G]
5: Herbicidal efficacy, Echinochloa crusgalli (Echinochloa crusgalli [16]; post-emergence, 500 g/ha)
9: Herbicidal efficacy, Poa annua (Poa annua [6]; 500 g/ha)
4: Herbicidal efficacy, Poa annua (Poa annua [6]; 125 g/ha) | Herbicidal efficacy, Digitaria sanguinalis (Digitaria sanguinalis [7]; 125 g/ha) | Herbicidal efficacy, Poa annua (Poa annua [8]; post-emergence, 500 g/ha) | Herbicidal efficacy, Digitaria sanguinalis (Digitaria sanguinalis [15]; post-emergence, 500 g/ha)
10: Herbicidal efficacy, Digitaria sanguinalis (Digitaria sanguinalis [7]; 500 g/ha) | Herbicidal efficacy, Echinochloa crusgalli (Echinochloa crusgalli [17]; [19])
2: Phytotoxicity, Soybean (Soybean [1]) | Herbicidal efficacy, Alopecurus myosuroides (Alopecurus myosuroides [4]; post-emergence, 500 g/ha) | Herbicidal efficacy, Echinochloa crusgalli (Echinochloa crusgalli [16]; post-emergence, 250 g/ha)
8: Herbicidal efficacy, Poa annua (Poa annua [6]; 250 g/ha) | Herbicidal efficacy, Digitaria sanguinalis (Digitaria sanguinalis [7]; 250 g/ha)
7: Herbicidal efficacy, Echinochloa crusgalli (Echinochloa crusgalli [17]; 250 g/ha, scale 0 to 10)
0: Phytotoxicity, Corn (Corn [2]) | Phytotoxicity, Corn (Corn [3]) | Herbicidal efficacy, Alopecurus myosuroides (Alopecurus myosuroides [4]; post-emergence, 125 g/ha) | Herbicidal efficacy, Alopecurus myosuroides (Alopecurus myosuroides [4]; post-emergence, 250 g/ha) | Phytotoxicity, Rice (Rice [5]) | Herbicidal efficacy, Poa annua (Poa annua [8]; post-emergence, 125 g/ha) | Phytotoxicity, Wheat (Wheat [9]) | Phytotoxicity, Cotton (Cotton [10]) | Phytotoxicity, Cotton (Cotton [11]) | Phytotoxicity, Soybean (Soybean [12]) | Herbicidal efficacy, Alopecurus myosuroides (Alopecurus myosuroides [13]; 62.5 g/ha) | Herbicidal efficacy, Alopecurus myosuroides (Alopecurus myosuroides [13]; 125 g/ha) | Herbicidal efficacy, Alopecurus myosuroides (Alopecurus myosuroides [13]; 250 g/ha) | Phytotoxicity, Rice (Rice [14]) | Herbicidal efficacy, Digitaria sanguinalis (Digitaria sanguinalis [15]; post-emergence, 125 g/ha) | Herbicidal efficacy, Digitaria sanguinalis (Digitaria sanguinalis [15]; post-emergence, 250 g/ha) | Herbicidal efficacy, Echinochloa crusgalli (Echinochloa crusgalli [16]; post-emergence, 125 g/ha) | Herbicidal efficacy, Echinochloa crusgalli (Echinochloa crusgalli [17]; 62.5 g/ha, scale 0 to 10) | Phytotoxicity, Wheat (Wheat [18])
6: Herbicidal efficacy, Poa annua (Poa annua [8]; post-emergence, 1,000 g/ha) | Herbicidal efficacy, Digitaria sanguinalis (Digitaria sanguinalis [15]; post-emergence, 1,000 g/ha) | Herbicidal efficacy, Echinochloa crusgalli (Echinochloa crusgalli [16]; post-emergence, 1,000 g/ha)
1: Herbicidal efficacy, Poa annua (Poa annua [6]; 62.5 g/ha) | Herbicidal efficacy, Digitaria sanguinalis (Digitaria sanguinalis [7]; 62.5 g/ha) | Herbicidal efficacy, Poa annua (Poa annua [8]; post-emergence, 250 g/ha)
3: Herbicidal efficacy, Alopecurus myosuroides (Alopecurus myosuroides [4]; post-emergence, 1,000 g/ha) | Herbicidal efficacy, Alopecurus myosuroides (Alopecurus myosuroides [13]; 500 g/ha) | Herbicidal efficacy, Echinochloa crusgalli (Echinochloa crusgalli [17]; 125 g/ha, scale 0 to 10)

CC1(COCc2c(F)cccc2Cl)CC(c2ccccc2)=NO1 (stereo not drawn) [Reference H]
4: Herbicidal efficacy, Poa annua (Poa annua [8]; post-emergence, 1,000 g/ha) | Herbicidal efficacy, Echinochloa crusgalli (Echinochloa crusgalli [16]; post-emergence, 1,000 g/ha)
9: Herbicidal efficacy, Alopecurus myosuroides (Alopecurus myosuroides [13]; 500 g/ha) | Herbicidal efficacy, Echinochloa crusgalli (Echinochloa crusgalli [17]; [19])
2: Phytotoxicity, Corn (Corn [3]) | Herbicidal efficacy, Poa annua (Poa annua [6]; 250 g/ha) | Herbicidal efficacy, Digitaria sanguinalis (Digitaria sanguinalis [7]; 250 g/ha) | Herbicidal efficacy, Poa annua (Poa annua [8]; post-emergence, 500 g/ha) | Herbicidal efficacy, Alopecurus myosuroides (Alopecurus myosuroides [13]; 250 g/ha) | Herbicidal efficacy, Echinochloa crusgalli (Echinochloa crusgalli [17]; 250 g/ha, scale 0 to 10)
1: Herbicidal efficacy, Digitaria sanguinalis (Digitaria sanguinalis [15]; post-emergence, 500 g/ha)
10: Herbicidal efficacy, Digitaria sanguinalis (Digitaria sanguinalis [7]; 500 g/ha)
8: Herbicidal efficacy, Poa annua (Poa annua [6]; 500 g/ha)
0: Phytotoxicity, Soybean (Soybean [1]) | Phytotoxicity, Corn (Corn [2]) | Herbicidal efficacy, Alopecurus myosuroides (Alopecurus myosuroides [4]; post-emergence, 125 g/ha) | Herbicidal efficacy, Alopecurus myosuroides (Alopecurus myosuroides [4]; post-emergence, 250 g/ha) | Herbicidal efficacy, Alopecurus myosuroides (Alopecurus myosuroides [4]; post-emergence, 500 g/ha) | Herbicidal efficacy, Alopecurus myosuroides (Alopecurus myosuroides [4]; post-emergence, 1,000 g/ha) | Phytotoxicity, Rice (Rice [5]) | Herbicidal efficacy, Poa annua (Poa annua [6]; 62.5 g/ha) | Herbicidal efficacy, Poa annua (Poa annua [6]; 125 g/ha) | Herbicidal efficacy, Digitaria sanguinalis (Digitaria sanguinalis [7]; 62.5 g/ha) | Herbicidal efficacy, Digitaria sanguinalis (Digitaria sanguinalis [7]; 125 g/ha) | Herbicidal efficacy, Poa annua (Poa annua [8]; post-emergence, 125 g/ha) | Herbicidal efficacy, Poa annua (Poa annua [8]; post-emergence, 250 g/ha) | Phytotoxicity, Wheat (Wheat [9]) | Phytotoxicity, Cotton (Cotton [10]) | Phytotoxicity, Cotton (Cotton [11]) | Phytotoxicity, Soybean (Soybean [12]) | Herbicidal efficacy, Alopecurus myosuroides (Alopecurus myosuroides [13]; 62.5 g/ha) | Herbicidal efficacy, Alopecurus myosuroides (Alopecurus myosuroides [13]; 125 g/ha) | Phytotoxicity, Rice (Rice [14]) | Herbicidal efficacy, Digitaria sanguinalis (Digitaria sanguinalis [15]; post-emergence, 125 g/ha) | Herbicidal efficacy, Digitaria sanguinalis (Digitaria sanguinalis [15]; post-emergence, 250 g/ha) | Herbicidal efficacy, Echinochloa crusgalli (Echinochloa crusgalli [16]; post-emergence, 125 g/ha) | Herbicidal efficacy, Echinochloa crusgalli (Echinochloa crusgalli [16]; post-emergence, 250 g/ha) | Herbicidal efficacy, Echinochloa crusgalli (Echinochloa crusgalli [16]; post-emergence, 500 g/ha) | Herbicidal efficacy, Echinochloa crusgalli (Echinochloa crusgalli [17]; 62.5 g/ha, scale 0 to 10) | Herbicidal efficacy, Echinochloa crusgalli (Echinochloa crusgalli [17]; 125 g/ha, scale 0 to 10) | Phytotoxicity, Wheat (Wheat [18])
5: Herbicidal efficacy, Digitaria sanguinalis (Digitaria sanguinalis [15]; post-emergence, 1,000 g/ha)
